± gives the expanded uncertainty stated by the source.
Experiment: activity coefficient (dimensionless); of the first substance listed, at infinite dilution; xn = mol fraction of the nth substance listed
Conditions: 101 kPa, Liquid, Chromatography, x1 = 0

## ClC(Cl)(Cl)Cl [tetrachloromethane] + CCCCn1cc[n+](C)c1.O=[N+]([O-])[O-]
303.15 K
  activity coefficient: 2.09 ± 0.12
313.15 K
  activity coefficient: 2.17 ± 0.12
323.15 K
  activity coefficient: 2.4 ± 0.13
333.15 K
  activity coefficient: 2.52 ± 0.14
343.15 K
  activity coefficient: 2.65 ± 0.15
353.15 K
  activity coefficient: 2.81 ± 0.15
363.15 K
  activity coefficient: 2.83 ± 0.16

## Cc1cccc(C)c1 [1,3-dimethylbenzene] + CCCCn1cc[n+](C)c1.O=[N+]([O-])[O-]
303.15 K
  activity coefficient: 5.42 ± 0.3
313.15 K
  activity coefficient: 5.47 ± 0.3
323.15 K
  activity coefficient: 5.5 ± 0.3
333.15 K
  activity coefficient: 5.55 ± 0.31
343.15 K
  activity coefficient: 5.57 ± 0.31
353.15 K
  activity coefficient: 5.62 ± 0.31
363.15 K
  activity coefficient: 5.61 ± 0.31

## CCCCCCCCC [nonane] + CCCCn1cc[n+](C)c1.O=[N+]([O-])[O-]
303.15 K
  activity coefficient: 263 ± 15
313.15 K
  activity coefficient: 238 ± 13
323.15 K
  activity coefficient: 218 ± 12
333.15 K
  activity coefficient: 200 ± 11
343.15 K
  activity coefficient: 184 ± 10
353.15 K
  activity coefficient: 171 ± 9.6
363.15 K
  activity coefficient: 159 ± 8.9

## CCO [ethanol] + CCCCn1cc[n+](C)c1.O=[N+]([O-])[O-]
303.15 K
  activity coefficient: 0.564 ± 0.034
313.15 K
  activity coefficient: 0.543 ± 0.033
323.15 K
  activity coefficient: 0.529 ± 0.033
333.15 K
  activity coefficient: 0.52 ± 0.033
343.15 K
  activity coefficient: 0.511 ± 0.032
353.15 K
  activity coefficient: 0.508 ± 0.032
363.15 K
  activity coefficient: 0.507 ± 0.032

## Cc1ccccc1C [1,2-dimethylbenzene] + CCCCn1cc[n+](C)c1.O=[N+]([O-])[O-]
303.15 K
  activity coefficient: 4.31 ± 0.24
313.15 K
  activity coefficient: 4.38 ± 0.24
323.15 K
  activity coefficient: 4.44 ± 0.25
333.15 K
  activity coefficient: 4.49 ± 0.25
343.15 K
  activity coefficient: 4.54 ± 0.25
353.15 K
  activity coefficient: 4.58 ± 0.25
363.15 K
  activity coefficient: 4.63 ± 0.26

## CC(C)=O [acetone] + CCCCn1cc[n+](C)c1.O=[N+]([O-])[O-]
303.15 K
  activity coefficient: 1.11 ± 0.055
313.15 K
  activity coefficient: 1.12 ± 0.055
323.15 K
  activity coefficient: 1.13 ± 0.056
333.15 K
  activity coefficient: 1.16 ± 0.058
343.15 K
  activity coefficient: 1.17 ± 0.059
353.15 K
  activity coefficient: 1.23 ± 0.062
363.15 K
  activity coefficient: 1.25 ± 0.063

## ClC(Cl)Cl [trichloromethane] + CCCCn1cc[n+](C)c1.O=[N+]([O-])[O-]
303.15 K
  activity coefficient: 0.28 ± 0.028
313.15 K
  activity coefficient: 0.316 ± 0.029
323.15 K
  activity coefficient: 0.334 ± 0.029
333.15 K
  activity coefficient: 0.39 ± 0.03
343.15 K
  activity coefficient: 0.415 ± 0.03
353.15 K
  activity coefficient: 0.445 ± 0.031
363.15 K
  activity coefficient: 0.504 ± 0.032

## CCCCCC [hexane] + CCCCn1cc[n+](C)c1.O=[N+]([O-])[O-]
303.15 K
  activity coefficient: 63.9 ± 3.6
313.15 K
  activity coefficient: 58.1 ± 3.2
323.15 K
  activity coefficient: 53.1 ± 3
333.15 K
  activity coefficient: 48.8 ± 2.7
343.15 K
  activity coefficient: 45.1 ± 2.5
353.15 K
  activity coefficient: 41.8 ± 2.3
363.15 K
  activity coefficient: 39 ± 2.2

## CCOC(C)=O [ethyl acetate] + CCCCn1cc[n+](C)c1.O=[N+]([O-])[O-]
303.15 K
  activity coefficient: 2.93 ± 0.16
313.15 K
  activity coefficient: 2.98 ± 0.17
323.15 K
  activity coefficient: 3.01 ± 0.17
333.15 K
  activity coefficient: 3.04 ± 0.17
343.15 K
  activity coefficient: 3.07 ± 0.17
353.15 K
  activity coefficient: 3.18 ± 0.18
363.15 K
  activity coefficient: 3.25 ± 0.18

## ClCCl [dichloromethane] + CCCCn1cc[n+](C)c1.O=[N+]([O-])[O-]
303.15 K
  activity coefficient: 0.464 ± 0.031
313.15 K
  activity coefficient: 0.491 ± 0.032
323.15 K
  activity coefficient: 0.526 ± 0.033
333.15 K
  activity coefficient: 0.552 ± 0.033
343.15 K
  activity coefficient: 0.579 ± 0.034
353.15 K
  activity coefficient: 0.602 ± 0.035
363.15 K
  activity coefficient: 0.64 ± 0.036

## c1ccccc1 [benzene] + CCCCn1cc[n+](C)c1.O=[N+]([O-])[O-]
303.15 K
  activity coefficient: 1.85 ± 0.1
313.15 K
  activity coefficient: 1.88 ± 0.1
323.15 K
  activity coefficient: 1.91 ± 0.1
333.15 K
  activity coefficient: 1.95 ± 0.11
343.15 K
  activity coefficient: 2.01 ± 0.11
353.15 K
  activity coefficient: 1.99 ± 0.11
363.15 K
  activity coefficient: 2.02 ± 0.11

## CCCCCCC [heptane] + CCCCn1cc[n+](C)c1.O=[N+]([O-])[O-]
303.15 K
  activity coefficient: 105 ± 5.9
313.15 K
  activity coefficient: 97.1 ± 5.4
323.15 K
  activity coefficient: 89.9 ± 5
333.15 K
  activity coefficient: 83.6 ± 4.7
343.15 K
  activity coefficient: 78.1 ± 4.4
353.15 K
  activity coefficient: 73.2 ± 4.1
363.15 K
  activity coefficient: 68.9 ± 3.8

## CCc1ccccc1 [ethylbenzene] + CCCCn1cc[n+](C)c1.O=[N+]([O-])[O-]
303.15 K
  activity coefficient: 5.53 ± 0.31
313.15 K
  activity coefficient: 5.55 ± 0.31
323.15 K
  activity coefficient: 5.56 ± 0.31
333.15 K
  activity coefficient: 5.56 ± 0.31
343.15 K
  activity coefficient: 5.6 ± 0.31
353.15 K
  activity coefficient: 5.59 ± 0.31
363.15 K
  activity coefficient: 5.61 ± 0.31

## Cc1ccccc1 [toluene] + CCCCn1cc[n+](C)c1.O=[N+]([O-])[O-]
303.15 K
  activity coefficient: 3.09 ± 0.17
313.15 K
  activity coefficient: 3.15 ± 0.17
323.15 K
  activity coefficient: 3.19 ± 0.18
333.15 K
  activity coefficient: 3.24 ± 0.18
343.15 K
  activity coefficient: 3.29 ± 0.18
353.15 K
  activity coefficient: 3.33 ± 0.18
363.15 K
  activity coefficient: 3.37 ± 0.19

## CO [methanol] + CCCCn1cc[n+](C)c1.O=[N+]([O-])[O-]
303.15 K
  activity coefficient: 0.322 ± 0.029
313.15 K
  activity coefficient: 0.318 ± 0.029
323.15 K
  activity coefficient: 0.315 ± 0.029
333.15 K
  activity coefficient: 0.31 ± 0.029
343.15 K
  activity coefficient: 0.307 ± 0.029
353.15 K
  activity coefficient: 0.303 ± 0.029
363.15 K
  activity coefficient: 0.302 ± 0.029

## CC#N [acetonitrile] + CCCCn1cc[n+](C)c1.O=[N+]([O-])[O-]
303.15 K
  activity coefficient: 0.6 ± 0.035
313.15 K
  activity coefficient: 0.605 ± 0.035
323.15 K
  activity coefficient: 0.615 ± 0.035
333.15 K
  activity coefficient: 0.62 ± 0.035
343.15 K
  activity coefficient: 0.626 ± 0.036
353.15 K
  activity coefficient: 0.63 ± 0.036
363.15 K
  activity coefficient: 0.644 ± 0.036

## CC1CCCCC1 [methylcyclohexane] + CCCCn1cc[n+](C)c1.O=[N+]([O-])[O-]
303.15 K
  activity coefficient: 45.3 ± 2.5
313.15 K
  activity coefficient: 42.1 ± 2.4
323.15 K
  activity coefficient: 39.4 ± 2.2
333.15 K
  activity coefficient: 37 ± 2.1
343.15 K
  activity coefficient: 34.9 ± 1.9
353.15 K
  activity coefficient: 33 ± 1.8
363.15 K
  activity coefficient: 31.2 ± 1.7

## Cc1ccc(C)cc1 [1,4-dimethylbenzene] + CCCCn1cc[n+](C)c1.O=[N+]([O-])[O-]
303.15 K
  activity coefficient: 5.06 ± 0.28
313.15 K
  activity coefficient: 5.17 ± 0.29
323.15 K
  activity coefficient: 5.16 ± 0.29
333.15 K
  activity coefficient: 5.22 ± 0.29
343.15 K
  activity coefficient: 5.22 ± 0.29
353.15 K
  activity coefficient: 5.24 ± 0.29
363.15 K
  activity coefficient: 5.26 ± 0.29

## CCCO [propan-1-ol] + CCCCn1cc[n+](C)c1.O=[N+]([O-])[O-]
303.15 K
  activity coefficient: 0.765 ± 0.04
313.15 K
  activity coefficient: 0.732 ± 0.039
323.15 K
  activity coefficient: 0.706 ± 0.038
333.15 K
  activity coefficient: 0.687 ± 0.037
343.15 K
  activity coefficient: 0.674 ± 0.037
353.15 K
  activity coefficient: 0.662 ± 0.037
363.15 K
  activity coefficient: 0.654 ± 0.036

## CCCCCCCC [octane] + CCCCn1cc[n+](C)c1.O=[N+]([O-])[O-]
303.15 K
  activity coefficient: 168 ± 9.4
313.15 K
  activity coefficient: 154 ± 8.6
323.15 K
  activity coefficient: 141 ± 7.9
333.15 K
  activity coefficient: 131 ± 7.3
343.15 K
  activity coefficient: 121 ± 6.8
353.15 K
  activity coefficient: 113 ± 6.3
363.15 K
  activity coefficient: 106 ± 5.9

## C1CCCCC1 [cyclohexane] + CCCCn1cc[n+](C)c1.O=[N+]([O-])[O-]
303.15 K
  activity coefficient: 29.8 ± 1.7
313.15 K
  activity coefficient: 27.6 ± 1.5
323.15 K
  activity coefficient: 25.6 ± 1.4
333.15 K
  activity coefficient: 23.9 ± 1.3
343.15 K
  activity coefficient: 22.4 ± 1.2
353.15 K
  activity coefficient: 21.1 ± 1.2
363.15 K
  activity coefficient: 19.9 ± 1.1

Reference: the NIST ThermoML archive (doi:10.1021/je200050q)
